Reference: patent US20260151375A1, “CDK2 INHIBITORS AND METHODS OF USING THE SAME” (Cedilla Therapeutics, Inc., priority 2022, published 2026)

Assays:
CDK2/Cyclin E1 [1] = biological target: T1, CDK2/Cyclin E1 (Homo sapiens, UniProt P24941); assay: ADPGLO (CDK2/E1-37 C), ADP-Glo Luminescent Kinase Assay; type: biochemical; conditions: 0.18 nM CDK2/Cyclin E1, 100 μM ATP, Histone H1, 37° C.
T1 construct: purchased 14-475
Procedure: Inhibition of CDK2/Cyclin E1 activity by the presence of small molecules was evaluated using ADP-Glo Luminescent Kinase Assay (Promega). Activated CDK2/Cyclin E1 was incubated with its substrate Histone H1 (SignalChem H10-54N) in the kinase reaction buffer (100 μM ATP, 50 mM HEPES pH 7.5, 10 mM MgCl2, 1 mM EDTA, 2 mM DTT, 0.01% Brij35, 0.5 mg/mL BSA). Luminescence was recorded with an Envision plate reader (PerkinElmer).
Dose titrations of inhibitors in 100% DMSO were combined with 0.36 nM CDK2/Cyclin E1 in reaction buffer. The mixtures were incubated for 60 minutes at 37° C. before the addition of ATP and Histone H1 substrate to initiate the kinase reaction. The final conditions were 0.18 nM CDK2/Cyclin E1, 100 μM ATP, and 1.5 μM Histone H1. The reactions were incubated at 37° C. for 90 minutes before being stopped with the addition of ADP-Glo reagent. This mixture was incubated at room temperature for 60 minutes before Kinase Detection Solution is added to generate luminescence. The stopped reactions were analyzed on an Envision plate reader. The conversion ratios were normalized to yield % activity, plotted against compound concentration, and fit to a four-parameter equation to determine the IC50 for each compound.

CDK2/Cyclin E1 [2] = biological target: T1, CDK2/Cyclin E1; assay: Caliper Assay (LabChip EZ Reader mobility shift assay), inhibition of CDK2/Cyclin E1 activity; type: biochemical; conditions: 2.5 nM CDK2/Cyclin E1(14-475), 100 μM ATP, 30 min preincubation; read-out: Caliper Assay (CDK2/CCNE1): IC50
In short: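 Compounds were preincubated 30 min with CDK2/Cyclin E1(14-475), then run for 100 min with 2.5 nM enzyme, 100 μM ATP and 1.5 μM 5-FAM-QSPKKG peptide in HEPES pH 7.5 (final). Reactions were EDTA-stopped and substrate-to-product conversion read by mobility shift. IC50 came from a four-parameter fit.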

Kuramochi cells = assay: IncuCyte Kuramochi Assay (cell proliferation); type: cell-based; conditions: 72 h, Kuramochi cells labeled with mApple-H2B, cell count, read-out: IncuCyte - Kuramochi RB-WT: IC50
In short: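 Cells imaged at 0 and 72 h after compound treatment (10 points, ½ log dilution, 20 μM top), with fluorescent nuclei counted. Fold change in count was normalized to DMSO wells and fitted to dose-response curves to give GI50.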

| SMILES | IC50 (CDK2/Cyclin E1 [1]) [µM] | IC50 (CDK2/Cyclin E1 [2]) [µM] | IC50 (Kuramochi cells) [µM] |
| --- | --- | --- | --- |
| CC1(C)C[C@@H]1C(=O)N1CC2(CN(C(=O)c3cncs3)CC2c2nnc(C(F)(F)c3ccc(Cl)c(Cl)c3)o2)C1 (stereo partly drawn) [I-32] | 0.5 to 5 | 0.1 to 1 | > 10 |
| COc1ccc(COc2cncc(C(=O)N3CC(c4nnc(C(F)(F)c5ccc(Cl)c(Cl)c5)o4)C4(C3)CN(C(=O)[C@H]3CC3(F)F)C4)n2)cc1 (stereo partly drawn) [I-125] | > 100 | > 100 | > 10 |
| CC(c1nc(C2CN(C(=O)c3nccnc3O)CC23CN(C(=O)[C@H]2CC2(F)F)C3)no1)n1ccc(C2CCCC2)n1 (stereo partly drawn) [I-129] | > 10 | > 100 | > 10 |
| CC(c1nc(C2CN(C(=O)c3cnn(Cc4cccc(C(=O)O)c4)c3)CC23CN(C(=O)[C@H]2CC2(C)C)C3)no1)n1ccc(C2CCCC2)n1 (stereo partly drawn) [I-131] | 0.5 to 5 | ≤ 0.01 | > 10 |
| CC(c1nc(C2CN(C(=O)c3cnn(Cc4ccc(C#N)cc4)c3)CC23CN(C(=O)[C@H]2CC2(C)C)C3)no1)n1ccc(C2CCCC2)n1 (stereo partly drawn) [I-133, 4-((4-(8-(5-(1-(3-cyclopentyl-1H-pyrazol-1-yl)ethyl)-1,2,4-oxadiazol-3-yl)-2-((S)-2,2-dimethylcyclopropane-1-carbonyl)-2,6-diazaspiro[3.4]octane-6-carbonyl)-1H-pyrazol-1-yl)methyl)benzonitrile] | ≤ 0.5 | ≤ 0.01 | 0.5 to 5 |
| O=C(c1[nH]ncc1C(F)(F)F)N1CC(c2nnc(C(F)(F)c3ccc(Cl)c(Cl)c3)o2)C2(CN(CC3CCCO3)C2)C1 (stereo not drawn) [I-136] | > 100 | > 100 | > 10 |

More lines, main results first:

| IC50 (CDK2/Cyclin E1 [1]) [µM] | IC50 (CDK2/Cyclin E1 [2]) [µM] | SMILES | IC50 (Kuramochi cells) [µM] |
| --- | --- | --- | --- |
| > 10 | 0.1 to 1 | CC(c1nc(C2CN(C(=O)c3cnn(Cc4ccc(C(=O)O)nc4)c3)CC23CN(C(=O)[C@H]2CC2(C)C)C3)no1)n1ccc(C2CCCC2)n1 (stereo partly drawn) [I-126] | > 10 |
| 5 to 10 | 0.1 to 1 | CC(c1nc(C2CN(C(=O)c3cnn(Cc4ccc(C(=O)O)cc4)c3)CC23CN(C(=O)[C@H]2CC2(C)C)C3)no1)n1ccc(C2CCCC2)n1 (stereo partly drawn) [I-127] | > 10 |
| 0.5 to 5 | 0.01 to 0.1 | CC(c1nc(C2CN(C(=O)c3cnn(Cc4cc(F)c(C(=O)O)c(F)c4)c3)CC23CN(C(=O)[C@H]2CC2(C)C)C3)no1)n1ccc(C2CCCC2)n1 (stereo partly drawn) [I-130, 4-((4-(8-(5-(1-(3-cyclopentyl-1H-pyrazol-1-yl)ethyl)-1,2,4-oxadiazol-3-yl)-2-((S)-2,2-dimethylcyclopropane-1-carbonyl)-2,6-diazaspiro[3.4]octane-6-carbonyl)-1H-pyrazol-1-yl)methyl)-2,6-difluorobenzoic acid] | > 10 |
| > 10 | 1 to 10 | O=C(c1cnc(O)cn1)N1CC(c2nnc(C(F)(F)c3ccc(C4CCOCC4)cc3)o2)C2(C1)CN(C(=O)[C@H]1CC1(F)F)C2 (stereo partly drawn) [I-132, (8-(5-(difluoro(4-(tetrahydro-2H-pyran-4-yl)phenyl)methyl)-1,3,4-oxadiazol-2-yl)-2-((R)-2,2-difluorocyclopropane-1-carbonyl)-2,6-diazaspiro[3.4]octan-6-yl)(5-hydroxypyrazin-2-yl)methanone] | > 10 |
| 0.5 to 5 | 0.1 to 1 | CC(c1nc(C2CN(C(=O)c3cnc(O)cn3)CC23CN(C(=O)[C@H]2CC2(F)F)C3)no1)n1ccc(C2CCCC2)n1 (stereo partly drawn) [I-134, (8-(5-(1-(3-cyclopentyl-1H-pyrazol-1-yl)ethyl)-1,2,4-oxadiazol-3-yl)-2-((R)-2,2-difluorocyclopropane-1-carbonyl)-2,6-diazaspiro[3.4]octan-6-yl)(5-hydroxypyrazin-2-yl)methanone] | > 10 |
| > 100 | > 100 | O=C(c1nccnc1O)N1CC(c2nnc(C(F)(F)c3ccc(Cl)c(Cl)c3)o2)C2(CN(CC3CCCO3)C2)C1 (stereo not drawn) [I-135] | > 10 |
